How the values were obtained:
[1] = system: HER14 cells (fibroblasts stably transfected with the human epidermal growth factor receptor); assay: Viability assay (MTT) with HER14 cells, dianthin-EGF, SA1641 and polymeric structure (Example 11); format: cell-based; details: 72 h
Description: To test the efficacy of the invention, we conducted a viability assay with HER14 cells. These cells are fibroblasts stably transfected with the human epidermal growth factor receptor and therefore target cells for the targeted toxin dianthin-EGF. HER14 cells (2,000 cells/100 μL/well) were seeded into wells of 96-well-cell culture plates and incubated for 24 h in DMEM medium supplemented with 10% fetal calf serum and 1% penicillin/streptomycin at 37° C., 5% CO2 and 98% humidity. The different test substances (see results and FIG. 21) were then added in triplicates in a volume of 25 μL and supplemented with further 25 μL of medium. After an incubation of 72 h, 30 μL 3-(4,5-dimethylthiazol-2-yl)-2,5-diphenyltetrazolium bromide (0.5 mg/mL in water) was added per well and incubated for 2 h. Thereafter, the medium was carefully removed and replaced by an aqueous solution containing 10% (v/v) isopropanol, 5% (w/v) sodium dodecyl sulfate and 400 mM HCl, and incubated for 5 min. Solubilized formazan was photometrically quantitated at […] in a microplate reader (Spectra MAX 340 PC, Molecular Devices, Sunnyvale, CA, USA). Untreated cells were normalized to 1 and all samples referred to the untreated control. Significance was determined by unpaired two-sample t-tests.

[2] = pH dependent hydrolysis of the hydrazone bond of SO1861-EMCH (MALDI-TOF-MS); format: physicochemical; details: HCl solution at pH 3, two points in time
HeLa cells = assay: Co-administration of PAMAM, dendron or chloroquine with dianthin-EGF and SO1861 on HeLa cells (inhibition of endosomal escape, cell viability); format: cell-based, human; details: 500 nM PAMAM, PAMAM derivatives or chloroquine, 667 nM dendron, various SO1861 concentrations
Source text: As control for the inhibition of endosomal acidification chloroquine was used.

[3] = newly diagnosed glioblastoma (ABT-414); platinum-resistant ovarian cancer (IMGN853); cited from earlier work
[4] = system: SK-BR-3, JIMT-1, MDA-MB-468, A431, CaSki, HeLa, A2058; assay: Control treatments, relative cell viability on various cancer cell lines (Example 4, FIG. 8); format: cell-based, human; details: wide range of toxin concentrations, up to 100.000 pM
Description: After treatment the cells were incubated for 72 hr at 37° C. before the cell viability was determined by a MTS-assay, performed according to the manufacturer's instruction (CellTiter 96® AQueous One Solution Cell Proliferation Assay, Promega). Briefly, the MTS solution was diluted 20× in DMEM without phenol red (PAN-Biotech GmbH) supplemented with 10% FBS (PAN-Biotech GmbH). The cells were washed once with 200 μL PBS per well, after which 100 μL diluted MTS solution was added per well. The plate was incubated for approximately 20-30 minutes at 37° C. Subsequently, the optical density at 492 nm was measured on a Thermo Scientific Multiskan FC plate reader (Thermo Scientific). For quantification the background signal of ‘medium only’ wells was subtracted from all other wells, before the ratio of untreated/treated cells was calculated, by dividing the background corrected signal of untreated wells over the background corrected signal of the treated wells.

Compound: C[C@@H]1O[C@@H](O[C@H]2[C@H](OC(=O)[C@]34CCC(C)(C)C[C@H]3C3=CC[C@@H]5[C@@]6(C)CC[C@H](O[C@H]7O[C@H](C(=O)O)[C@@H](O)[C@H](O[C@@H]8OC[C@@H](O)[C@H](O)[C@H]8O)[C@H]7O[C@@H]7O[C@H](CO)[C@H](O)[C@H](O)[C@H]7O)[C@@](C)(C=O)[C@@H]6CC[C@@]5(C)[C@]3(C)CC4)O[C@H](C)[C@H](O[C@@H]3O[C@H](C)[C@@H](O)[C@H](O)[C@H]3O)[C@@H]2O)[C@H](O)[C@H](O)[C@H]1O[C@@H]1OC[C@@H](O)[C@H](O[C@@H]2OC[C@@H](O)[C@H](O)[C@H]2O)[C@H]1O [SA1641]
- effect on cells of 0.1 nM dianthin-EGF in the presence of SA1641 [1]: death of all cells

Compound: CC(=O)OC1C(C)OC(OC2C(C)OC(OC(=O)[C@]34CCC(C)(C)CC3C3=CCC5[C@@]6(C)CC[C@H](OC7OC(C(=O)O)C(O)C(OC8OCC(O)C(O)C8O)C7OC7OC(CO)C(O)C(O)C7O)[C@@](C)(/C=N/NC(=O)CCCCCN7C(=O)C=CC7=O)C6CC[C@@]5(C)[C@]3(C)C[C@H]4O)C(OC3OC(C)C(OC4OCC(O)C(OC5OC(CO)C(O)C(O)C5O)C4O)C(O)C3O)C2O)C(O)C1OC1OCC(O)C(O)C1O (stereo partly drawn) [SO1861-EMCH]
- hydrolysis of the hydrazone bond [2]: responsive towards hydrolysis and gets cleaved

Compound: CCN(CC)CCCC(C)Nc1ccnc2cc(Cl)ccc12 (stereo not drawn) [chloroquine]
- effect on SO1861-mediated endosomal escape of the targeted toxin (dianthin-EGF) and cell killing (HeLa cells): inhibit the SO1861-mediated endosomal escape of the targeted toxin and subsequent cell killing

Compound: depatuxizumab mafodotin: EGFR targeted ADC, AbbVie
- survival benefit in phase 3 trials [3]: no survival benefit

Compound: mirvetuximab soravtansine: folate receptor alpha targeted ADC, ImmunoGen
- survival benefit in phase 3 trials [3]: no survival benefit

Compound: saporin
- influence on cell viability [4]: do not or hardly have any influence on cell viability
